Test results reported in patent US11667649B2, “Heteroaromatic macrocyclic ether chemotherapeutic agents” (Nuvalent, Inc., priority 2020, dated 2023).

What was measured:
TRKA-wt kinase domain = biological target: T1, TRKA-wt kinase domain (Homo sapiens, UniProt P04629); assay: Biochemical kinase assay, TRKA-wt; settings: 2 mM ATP substrate solution, read-out: Ki^app TRKA-wt
T1 construct: TRKA-wt (1 nM, BPS Bio, 40280) kinase domains in buffer; purchased BPS Bio 40280
How it was run: (§1)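 Compound in DMSO added first, then substrate solution (ATP 2 mM; AQT0101 or AQT0104, 26 μM; pH 7.5 HEPES, 10 mM MgCl2), then kinase solution with enzyme at 0.5–3 nM depending on construct. Kinetic read every 2 min for 120 min at 30° C; Ki^app by Morrison regression.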

ALK-wt kinase domain = biological target: T2, ALK-wt kinase domain (Homo sapiens, UniProt Q9UM73); assay: Biochemical kinase assay, ALK-wt; settings: 2 mM ATP substrate solution, read-out: Ki^app ALK-wt
T2 construct: TRKA-wt (1 nM, BPS Bio, 40280) kinase domains in buffer; purchased Carna 08-518
How it was run: as §1

ROS1-wt kinase domain = biological target: T3, ROS1-wt kinase domain (Homo sapiens, UniProt P08922); assay: Biochemical kinase assay, ROS1-wt; settings: 2 mM ATP substrate solution, read-out: Ki^app ROS1-wt
T3 construct: TRKA-wt (1 nM, BPS Bio, 40280) kinase domains in buffer; purchased Carna 08-163
How it was run: as §1

[1] = biological target: T4, ROS1-G2032R kinase domain (Homo sapiens, UniProt P08922, G2032R); assay: Biochemical kinase assay, ROS1-G2032R; settings: 2 mM ATP substrate solution, read-out: Ki^app ROS1-G2032R
T4 construct: TRKA-wt (1 nM, BPS Bio, 40280) kinase domains in buffer; purchased SignalChem R14-12BG
How it was run: as §1

[2] = biological target: T5, ALK L1196M/G1202R kinase domain (Homo sapiens, UniProt Q9UM73, G1202R/L1196M); assay: Biochemical kinase assay, ALK L1196M/G1202R; settings: 2 mM ATP substrate solution, read-out: Ki^app ALK-L1196M-G1202R
T5 construct: TRKA-wt (1 nM, BPS Bio, 40280) kinase domains in buffer; purchased SignalChem A19-12NG
How it was run: as §1

Row | Ki (TRKA-wt kinase domain) [nM] | Ki (ALK-wt kinase domain) [nM] | Ki (ROS1-wt kinase domain) [nM] | Ki [1] [nM] | Ki [2] [nM] | SMILES
1 | < 50 | < 50 | < 50 | < 50 | < 50 | CCn1ncc2c1-c1cnc(N)c(c1)O[C@H](C)c1cc(F)ccc1-n1nc(Cl)cc1C2 [Compound 74]
2 | > 500 | < 50 | < 50 | 50 to 500 | < 50 | CCn1ncc2c1-c1cnc(N)c(c1)OCc1cc(F)ccc1-c1nccn1C2 [Compound 34]
3 | 50 to 500 | < 50 | < 50 | < 50 | < 50 | CCn1ncc2c1-c1cnc(N)c(c1)O[C@H](C)c1cc(F)ccc1-c1nc(OC)ccc1C2 [Compound 145]
4 | < 50 | < 50 | < 50 | < 50 | < 50 | CCn1ncc2c1-c1cnc(N)c(c1)O[C@H](C)c1cc(F)ccc1-n1nc(F)cc1C2 [Compound 71]
5 | 50 to 500 | < 50 | < 50 | < 50 | < 50 | CCn1ncc2c1-c1cnc(N)c(c1)O[C@H](C)c1cc(F)ccc1-c1ncoc1C2 [Compound 77]
6 | 50 to 500 | < 50 | < 50 | < 50 | < 50 | CCn1ncc2c1-c1cnc(N)c(c1)O[C@H](C)c1cc(F)ccc1-c1nocc1C2 [Compound 99]
7 | < 50 | < 50 | < 50 | < 50 | < 50 | CCn1ncc2c1-c1ccc(F)cc1[C@@H](C)Oc1cc(cnc1N)-c1c(cnn1C)C2 [Compound 4]
8 | > 500 | < 50 | < 50 | < 50 | < 50 | C[C@H]1Oc2cc(cnc2N)-c2c(C#N)ncn2Cc2cnccc2-c2ccc(F)cc21 [Compound 10]
9 | 50 to 500 | < 50 | < 50 | < 50 | < 50 | Cc1nc2c(s1)Cn1ncc(C(F)F)c1-c1cnc(N)c(c1)O[C@H](C)c1cc(F)ccc1-2 [Compound 68]
10 | > 500 | < 50 | < 50 | < 50 | < 50 | C[C@H]1Oc2cc(cnc2N)-c2c(cnn2CC(F)(F)F)Cc2cn(C)nc2-c2ccc(F)cc21 [Compound 27]
11 | > 500 | < 50 | < 50 | < 50 | 50 to 500 | CC1Oc2cc(cnc2N)-c2c(cnn2CC(F)F)Cn2ccnc2-c2ccc(F)cc21 (centres unmarked) [Compound 40]
12 | < 50 | < 50 | < 50 | < 50 | < 50 | CCn1ncc2c1-c1cnc(N)c(c1)O[C@H](C)c1cc(F)ccc1-n1nc(Br)cc1C2 [Compound 80]
13 | > 500 | < 50 | < 50 | 50 to 500 | 50 to 500 | CCn1ncc2c1-c1cnc(N)c(c1)OC(CO)c1cc(F)ccc1-c1nccn1C2 (centres unmarked) [Compound 166]
14 | > 500 | < 50 | < 50 | < 50 | < 50 | C[C@H]1Oc2cc(cnc2N)-c2c(c(Cl)nn2CC(F)F)Cc2cn(C)nc2-c2ccc(F)cc21 [Compound 83]
15 | > 500 | < 50 | < 50 | < 50 | < 50 | C[C@H]1Oc2cc(cnc2N)-c2c(cnn2CC2CC2)Cc2cn(C(F)F)nc2-c2ccc(F)cc21 [Compound 160]

Further lines, the molecule ahead of its results:

Row | SMILES | Ki (TRKA-wt kinase domain) [nM] | Ki (ALK-wt kinase domain) [nM] | Ki (ROS1-wt kinase domain) [nM] | Ki [1] [nM] | Ki [2] [nM]
16 | C[C@H]1Oc2cc(cnc2N)-c2c(cnn2C2CCC2)Cc2cnn(C)c2-c2ccc(F)cc21 [Compound 5] | > 500 | < 50 | < 50 | < 50 | < 50
17 | C[C@H]1Oc2cc(cnc2N)-c2c(C#N)nn(C)c2Cc2cc(C(F)(F)F)nn2-c2ccc(F)cc21 [Compound 104] | > 500 | < 50 | < 50 | < 50 | < 50
18 | CCn1ncc2c1-c1cnc(N)c(c1)OCc1cc(F)ccc1-n1ncc(F)c1C2 [Compound 48] | > 500 | < 50 | < 50 | < 50 | < 50
19 | C[C@H]1Oc2cc(cnc2N)-c2c(C#N)nn(C)c2Cc2csnc2-c2ccc(F)cc21 [Compound 143] | 50 to 500 | < 50 | < 50 | < 50 | < 50
20 | C[C@H]1Oc2cc(cnc2N)-c2c(C#N)noc2Cc2cn(C)nc2-c2ccc(F)cc21 [Compound 15] | > 500 | < 50 | < 50 | < 50 | < 50
21 | C[C@H]1Oc2cc(cnc2N)-c2c(C#N)cnn2Cc2cn(C)nc2-c2ccc(F)cc21 [Compound 9] | > 500 | < 50 | < 50 | < 50 | < 50
22 | CCn1nc(OC)c2c1-c1cnc(N)c(c1)O[C@H](C)c1cc(F)ccc1-c1nn(C)cc1C2 [Compound 181] | 50 to 500 | < 50 | < 50 | < 50 | < 50
23 | COc1cc2n(n1)-c1ccc(F)cc1[C@@H](C)Oc1cc(cnc1N)-c1c(nnn1CC1CC1)C2 [Compound 144] | 50 to 500 | < 50 | < 50 | < 50 | < 50
24 | C[C@H]1Oc2cc(cnc2N)-c2c(C#N)ncn2Cc2scnc2-c2ccc(F)cc21 [Compound 64] | > 500 | < 50 | < 50 | < 50 | < 50
25 | C[C@H]1Oc2cc(cnc2N)-c2c(CC3CC3)nn(C)c2Cc2cn(C)nc2-c2ccc(F)cc21 [Compound 178] | 50 to 500 | < 50 | < 50 | < 50 | < 50
26 | CCn1ncc2c1-c1cnc(N)c(c1)O[C@H](C)c1cc(F)ccc1-n1ncc(C#N)c1C2 [Compound 47] | 50 to 500 | < 50 | < 50 | < 50 | 50 to 500
27 | C[C@H]1Oc2cc(cnc2N)-c2c(C#N)nn(C)c2Cc2cc(C(F)F)nn2-c2ccc(F)cc21 [Compound 132] | 50 to 500 | < 50 | < 50 | < 50 | < 50
28 | CCc1c(C#N)nn2c1-c1cnc(N)c(c1)O[C@H](C)c1cc(F)ccc1-c1nn(C)cc1C2 [Compound 6] | 50 to 500 | < 50 | < 50 | < 50 | < 50
29 | CCn1ncc2c1-c1cnc(N)c(c1)O[C@H](C)c1cc(F)ccc1-n1nc(C(F)(F)F)cc1C2 [Compound 52] | 50 to 500 | < 50 | < 50 | < 50 | < 50
30 | Cc1nc2c(s1)Cc1nnn(CC3CC3)c1-c1cnc(N)c(c1)O[C@H](C)c1cc(F)ccc1-2 [Compound 114] | 50 to 500 | < 50 | < 50 | < 50 | < 50
31 | CCc1nsc2c1-c1cnc(N)c(c1)O[C@H](C)c1cc(F)ccc1-c1nn(C)cc1C2 [Compound 155] | < 50 | < 50 | < 50 | < 50 | < 50
32 | CCn1nc(OC)c2c1-c1cnc(N)c(c1)O[C@H](C)c1cc(F)ccc1-n1nc(C(F)F)cc1C2 [Compound 147] | < 50 | < 50 | < 50 | < 50 | < 50
33 | CCn1nc(Br)c2c1-c1cnc(N)c(c1)O[C@H](C)c1cc(F)ccc1-c1nn(C)cc1C2 [Compound 148] | > 500 | < 50 | < 50 | 50 to 500 | < 50
34 | Cc1cc2n(n1)-c1ccc(F)cc1[C@@H](C)Oc1cc(cnc1N)-c1c(c(C)nn1CC1CC1)C2 [Compound 141] | 50 to 500 | < 50 | < 50 | < 50 | < 50
35 | Cc1cc2n(n1)-c1ccc(F)cc1[C@@H](C)Oc1cc(cnc1N)-c1c(C#N)ncn1C2 [Compound 61] | > 500 | 50 to 500 | 50 to 500 | > 500 | > 500
36 | C[C@H]1Oc2cc(cnc2N)-c2c(c(C#N)nn2CC2CC2)Cc2cccnc2-c2ccc(F)cc21 [Compound 123] | > 500 | < 50 | < 50 | < 50 | < 50
37 | Cc1nc2c(s1)Cc1c(C)nn(CC3CC3)c1-c1cnc(N)c(c1)O[C@H](C)c1cc(F)ccc1-2 [Compound 134] | 50 to 500 | < 50 | < 50 | < 50 | < 50
